Test results reported in ChEMBL document CHEMBL6127035, “Novel pyridazinone derivatives bind to KSRP: Synthesis, anti-tumor biological evaluations and modelling insights” (Eur J Med Chem, 2024).
Active and inactive are the calls of the source. The calls are words filed in the database; no cut-off is given here.

Key:
MCF7 [1] = experiment: Induction of apoptosis in human MCF7 cells assessed as necrotic cells at 2.5 uM incubated for 48 hrs by Annexin V-FITC/PI staining based flow cytometric analysis (reference value: 1.16 %); type: functional
[2] = Toxicity in BALB/C-nu/nu mouse xenografted with human MCF7 cells assessed as histopathological lesions in lung at 20 to 30 mg/kg, iv administered every other day for 15 days by H and E staining based analysis; type: organism-based; details: in vivo, 360 h, dose 20-30 mg/kg, time 15 day
MCF7 [3] = experiment: Inhibition of colony formation in human MCF7 cells assessed as reduction in colony count incubated for 2 weeks by crystal violet staining based analysis; type: functional, cell-based; details: dose 1.25-2.5 µM
MDA-MB-231 [4] = experiment: Antiproliferative activity against human MDA-MB-231 cells assessed as reduction in cell viability incubated for 2 days by MTT assay; type: functional, cell-based; details: MDA-MB-231, 48 h
[5] = Toxicity in BALB/C-nu/nu mouse xenografted with human MCF7 cells assessed as histopathological lesions in heart at 20 to 30 mg/kg, iv administered every other day for 15 days by H and E staining based analysis; type: organism-based; details: in vivo, 360 h, dose 20-30 mg/kg, time 15 day
MCF7 [6] = experiment: Induction of apoptosis in human MCF7 cells assessed as necrotic cells at 1.25 uM incubated for 48 hrs by Annexin V-FITC/PI staining based flow cytometric analysis (reference value: 1.16 %); type: functional
[7] = Toxicity in BALB/C-nu/nu mouse xenografted with human MCF7 cells assessed as histopathological lesions in kidney at 20 to 30 mg/kg, iv administered every other day for 15 days by H and E staining based analysis; type: organism-based; details: in vivo, 360 h, dose 20-30 mg/kg, time 15 day
MCF7 [8] = experiment: Induction of DNA double-strand breaks in human MCF7 cells assessed as appearance of nuclear fragments at 10 uM incubated for 24 hrs by Hoechst 33342 staining based fluorescence microscopic analysis; type: functional, cell-based
Mitochondrial membrane = experiment: Induction of mitochondrial membrane potential loss in human MCF7 cells assessed as increase in green fluorescence at 10 uM incubated for 24 hrs by JC-1 staining based automated microscopic immunofluorescence analysis; type: cell membranes
MCF7 [9] = experiment: Induction of apoptosis in human MCF7 cells assessed as viable cells at 0.62 uM incubated for 48 hrs by Annexin V-FITC/PI staining based flow cytometric analysis (reference value: 87.2 %); type: functional; details: read-out: Activity
U-87 MG = experiment: Antiproliferative activity against human U-87 MG cells assessed as reduction in cell viability incubated for 2 days by MTT assay; type: functional, cell-based, U-87MG ATCC; details: 48 h
MCF7 [10] = experiment: Induction of apoptosis in human MCF7 cells assessed as viable cells at 2.5 uM incubated for 48 hrs by Annexin V-FITC/PI staining based flow cytometric analysis (reference value: 87.2 %); type: functional; details: read-out: Activity
[11] = target: T1, Far upstream element-binding protein 2 (Homo sapiens) (UniProt Q92945); experiment: Binding affinity to recombinant full-length KSRP (unknown origin) by SPR analysis
T1 sequence (whole entry): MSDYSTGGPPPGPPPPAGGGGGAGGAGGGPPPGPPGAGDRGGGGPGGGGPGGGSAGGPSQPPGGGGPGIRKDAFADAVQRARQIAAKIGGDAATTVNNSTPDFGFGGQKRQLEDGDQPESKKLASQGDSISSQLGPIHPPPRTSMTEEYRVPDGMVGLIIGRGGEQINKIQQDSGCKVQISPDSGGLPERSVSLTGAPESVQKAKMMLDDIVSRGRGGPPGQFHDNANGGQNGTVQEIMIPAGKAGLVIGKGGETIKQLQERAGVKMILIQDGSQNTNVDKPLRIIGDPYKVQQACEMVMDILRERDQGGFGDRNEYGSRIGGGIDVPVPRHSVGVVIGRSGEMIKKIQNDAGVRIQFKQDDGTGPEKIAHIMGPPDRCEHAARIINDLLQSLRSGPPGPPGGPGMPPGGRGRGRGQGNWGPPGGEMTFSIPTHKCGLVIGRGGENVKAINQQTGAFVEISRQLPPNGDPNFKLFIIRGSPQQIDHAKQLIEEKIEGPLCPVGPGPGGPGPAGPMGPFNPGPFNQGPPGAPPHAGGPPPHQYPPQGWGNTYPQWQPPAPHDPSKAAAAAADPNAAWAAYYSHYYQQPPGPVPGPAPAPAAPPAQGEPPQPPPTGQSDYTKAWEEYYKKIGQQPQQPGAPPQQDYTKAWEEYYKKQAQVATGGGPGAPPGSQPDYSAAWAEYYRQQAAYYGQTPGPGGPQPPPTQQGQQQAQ

[12] = Acute toxicity in BALB/c nu/nu mouse assessed as survival rate at 100 mg/kg, ip administered for 7 days relative to control; type: organism-based; details: in vivo, time 7 day
[13] = Acute toxicity in BALB/c nu/nu mouse assessed as survival rate at 90 mg/kg, ip administered for 7 days relative to control; type: organism-based; details: in vivo, time 7 day
MCF7 [14] = experiment: Antitumor activity against human MCF7 cells xenografted in BALB/C-nu/nu mouse model assessed as decrease in tumor growth at 20 to 30 mg/kg, iv administered every other day for 15 days; type: functional, organism-based; details: dose 20-30 mg/kg, time 15.0 day
MCF7 [15] = experiment: Induction of DNA double-strand breaks in human MCF7 cells assessed as increase in gamma-H2AX expression incubated for 24 hrs by Western blotting; type: functional, cell-based
MCF7 [16] = experiment: Antitumor activity against human MCF7 cells xenografted in BALB/C-nu/nu mouse model assessed as decrease in tumor weight at 30 mg/kg, iv administered every other day for 15 days relative to control; type: functional; parameters: scale not given: the % may be the effect or the level left; details: time 15 day
[17] = Toxicity in BALB/C-nu/nu mouse xenografted with human MCF7 cells assessed as reduction in body weight at 30 mg/kg, iv administered every other day for 15 days relative to control; type: organism-based; parameters: scale not given: the % may be the effect or the level left; details: in vivo, 360 h, time 15 day
MIA PaCa-2 = experiment: Antiproliferative activity against human MIA PaCa-2 cells assessed as reduction in cell viability incubated for 2 days by MTT assay; type: functional, cell-based; details: MIA PaCa-2, 48 h
MCF7 [18] = experiment: Antiproliferation against human MCF7 cells assessed as effect on cell proliferation at 0.625 uM incubated for 2 days by MTT assay; type: functional, cell-based; details: time 2.0 day
MCF7 [19] = experiment: Induction of cell cycle arrest in human MCF7 cells assessed as decrease in S phase cells at 5 uM incubated for 24 hrs by PI staining based flow cytometric analysis; type: functional
[20] = Acute toxicity in BALB/c nu/nu mouse assessed as survival rate at 110 mg/kg, ip administered for 7 days relative to control; type: organism-based; details: in vivo, time 7 day
MDA-MB-231 [21] = experiment: Inhibition of colony formation in human MDA-MB-231 cells assessed as reduction in colony count incubated for 2 weeks by crystal violet staining based analysis; type: functional, cell-based
[22] = Toxicity in BALB/C-nu/nu mouse xenografted with human MCF7 cells assessed as histopathological lesions in liver at 20 to 30 mg/kg, iv administered every other day for 15 days by H and E staining based analysis; type: organism-based; details: in vivo, 360 h, dose 20-30 mg/kg, time 15 day
MCF7 [23] = experiment: Antiproliferative activity against human MCF7 cells assessed as reduction in cell viability incubated for 2 days by MTT assay; type: functional, cell-based; details: MCF7, 48 h
MCF7 [24] = experiment: Induction of cell cycle arrest in human MCF7 cells assessed as increase in sub-G1 phase cells at 5 uM incubated for 24 hrs by PI staining based flow cytometric analysis; type: functional

CN(CCO)S(=O)(=O)c1ccc(-n2ncc(Cl)c(Cl)c2=O)cc1
Activity (MCF7 [1]): 2.77% | Activity [2]: Non-Toxic | inhibition (MCF7 [3]): Dose-Dependent Effect | IC50 (MDA-MB-231 [4]): 8.35 µM | Activity [5]: Non-Toxic | Activity (MCF7 [6]): 1.26% | Activity [7]: Non-Toxic | Activity (MCF7 [8]): Active | Activity (Mitochondrial membrane): Active | viability at 0.62 µM (MCF7 [9]): 84.5% | IC50 (U-87 MG): 0.4 µM | viability at 2.5 µM (MCF7 [10]): 39.5% | Activity [11]: Dose-Dependent Effect | survival at 168 h [12]: 80% | survival at 168 h [13]: 100% | Activity (MCF7 [14]): Active | Activity (MCF7 [15]): Dose-Dependent Effect | Activity (MCF7 [16]): 74.2% | Activity [17]: 20% | IC50 (MIA PaCa-2): 0.36 µM | Activity (MCF7 [18]): inactive | Activity (MCF7 [19]): Active | survival at 168 h [20]: 20% | inhibition (MDA-MB-231 [21]): Active | Activity [22]: Non-Toxic | IC50 (MCF7 [23]): 3.1 µM | Activity (MCF7 [24]): Active
